In patent publication US20140309192A1, “MODULATORS OF THE G PROTEIN-COUPLED MAS RECEPTOR AND THE TREATMENT OF DISORDERS RELATED THERETO” (ARENA PHARMACEUTICALS, INC., priority 2011, published 2014):

target: T1, rat Mas receptor (Rattus norvegicus, UniProt P12526); test: HTRF IP1 assay, HEK293 cells expressing rat Mas receptor; assay type: cell-based; conditions: HTRF IP1 assay, rat Mas receptor (Table B.1); read-out: IC50
T1 construct: expressed in transfected cells; host or cells: HEK293 (ATCC CRL-1573)
T1 sequence (P12526 1-324): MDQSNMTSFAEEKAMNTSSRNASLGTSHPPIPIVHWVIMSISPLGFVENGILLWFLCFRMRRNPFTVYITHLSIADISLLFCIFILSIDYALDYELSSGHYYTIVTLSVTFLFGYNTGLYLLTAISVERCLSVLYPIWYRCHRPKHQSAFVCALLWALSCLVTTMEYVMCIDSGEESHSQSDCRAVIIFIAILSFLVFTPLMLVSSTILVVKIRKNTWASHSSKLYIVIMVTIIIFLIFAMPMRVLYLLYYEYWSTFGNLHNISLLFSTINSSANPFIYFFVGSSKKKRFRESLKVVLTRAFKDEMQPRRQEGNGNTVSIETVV
From the text: (§1) Human and rat Mas receptors were either transiently or stably expressed in HEK293 cells. For transient transfections, human or rat Mas in pHM6 vector were transfected into HEK293 cells using Lipofectamine® (Invitrogen #18324-012). HEK293 cells transfected with empty pHM6 vector were used as a control. For generation of stable cell lines, cDNA expression plasmids encoding human or rat Mas genes and the neo^r gene were transfected into HEK293 cells (ATCC# CRL-1573) using Lipofectamine® (Invitrogen) according to the manufacturer's instructions. Stable receptor expressing pools were then generated over 3 weeks by standard techniques in the presence of 500 μg/mL Geneticin® (Gibco). Individual receptor stable pools were dilution cloned using standard techniques and clones were comparatively evaluated in inositol phosphate accumulation assays. Preferred clones were banked and cultured as needed. HEK293 cells were used as controls. The 384 well IP-One HTRF® Assay (Cisbio #62P1APEJ) was performed as described by the manufacturer's protocol. Cells were plated in at 100,000 cells per well in 15 μL DMEM (Gibco #11960) and incubated in a CO2 incubator at 37° C. for 2 h. Five μL of compounds diluted in 2× stimulation buffer plus 0.4% BSA (Sigma (#A3059) were added to each well and serial diluted IP1 standards (Cisbio #62IP1CDA) were also added to corresponding wells at this step. After the cells were incubated for 4 h in a CO2 incubator at 37° C., d2-labeled IP1 and cryptate-labeled anti-IP1 monoclonal antibody diluted in lysis buffer were added sequentially in 10 μL per well and the assay plates were kept in the dark at room temperature overnight. Ratiometric measurements of fluorescence emission at 665 nm and 620 nm were obtained using a Pherastar fluorometer (BMG Labtech). IP1 levels in each well were calculated according to the standard curves on each plate. IC50 values were obtained by fitting data to a nonlinear curve-fitting program (GraphPad Software, Inc., La Jolla Calif.).

Question: Which IC50 does the source give for `O=C(Nc1ccc(Cl)cc1N1CCN(CCC(F)(F)F)CC1)c1ccc2c(c1)CN(CCCO)CC2` [Compound 16, N-(4-Chloro-2-(4-(3,3,3-trifluoropropyl)piperazin-1-yl)phenyl)-2-(3-hydroxypropyl)-1,2,3,4-tetrahydroisoquinoline-7-carboxamide] here?
Answer: 316 nM

Question: Which IC50 does the source give for `N[C@@H]1CCCN(Cc2ccc(C(=O)Nc3ccc(Cl)cc3N3CCN(CCC(F)(F)F)CC3)c(F)c2)C1` [Compound 90, (R)-4-((3-Aminopiperidin-1-yl)methyl)-N-(4-chloro-2-(4-(3,3,3-trifluoropropyl)piperazin-1-yl)phenyl)-2-fluorobenzamide] here?
Answer: 704 nM

Question: Which IC50 does the source give for `O=C(Nc1ccc(Cl)cc1N1CCN(CCC(F)(F)F)CC1)c1ccc(CN2CCC[C@@H](CO)C2)c(F)c1F` [Compound 252, (R)—N-(4-Chloro-2-(4-(3,3,3-trifluoropropyl)piperazin-1-yl)phenyl)-2,3-difluoro-4-((3-(hydroxymethyl)piperidin-1-yl)methyl)benzamide] here?
Answer: 115 nM

target: T2, human Mas receptor (Homo sapiens, UniProt P04201); test: HTRF IP1 assay, HEK293 cells expressing human Mas receptor; assay type: cell-based; conditions: HTRF IP1 assay, human Mas receptor (Table B.2); read-out: IC50
T2 construct: expressed in transfected cells; host or cells: HEK293 (ATCC CRL-1573)
T2 sequence (P04201 1-325): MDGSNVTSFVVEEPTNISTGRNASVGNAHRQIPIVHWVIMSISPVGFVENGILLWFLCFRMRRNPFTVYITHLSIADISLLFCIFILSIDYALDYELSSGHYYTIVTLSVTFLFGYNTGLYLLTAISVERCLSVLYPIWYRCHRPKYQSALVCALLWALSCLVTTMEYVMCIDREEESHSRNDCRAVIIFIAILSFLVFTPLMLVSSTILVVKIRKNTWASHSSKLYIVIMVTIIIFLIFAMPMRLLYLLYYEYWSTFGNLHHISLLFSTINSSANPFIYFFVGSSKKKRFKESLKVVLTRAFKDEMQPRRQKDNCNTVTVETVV
From the text: as §1

Question: How did the IC50 turn out when `O=C1CN(Cc2ccc(C(=O)Nc3ccc(Cl)cc3N3CCN(CCC(F)(F)F)CC3)c(F)c2F)CCN1` [Compound 167, N-(4-Chloro-2-(4-(3,3,3-trifluoropropyl)piperazin-1-yl)phenyl)-2,3-difluoro-4-((3-oxopiperazin-1-yl)methyl)benzamide] was run?
Answer: 35.3 nM

Question: `O=C(Nc1ccc(Cl)cc1N1CCN(CCC(F)(F)F)CC1)c1ccc(CNC(=O)[C@H]2CC[C@@H](OP(=O)(O)O)CC2)c(F)c1F` [Compound 392, (1s,4s)-4-(4-(4-Chloro-2-(4-(3,3,3-trifluoropropyl)piperazin-1-yl)phenylcarbamoyl)-2,3-difluorobenzylcarbamoyl)cyclohexyl dihydrogen phosphate] was tested. Which IC50 did it give?
Answer: 6.13 nM

Question: How did the IC50 turn out when `N#CCCNCc1ccc(C(=O)Nc2ccc(Cl)cc2N2CCN(CCC(F)(F)F)CC2)c(F)c1F` [Compound 235, N-(4-Chloro-2-(4-(3,3,3-trifluoropropyl)piperazin-1-yl)phenyl)-4-((2-cyanoethylamino)methyl)-2,3-difluorobenzamide] was run?
Answer: 39.1 nM

Question: With `O=C(Nc1ccc(Cl)cc1N1CCN(CCC(F)(F)F)CC1)c1ccc2c(c1)CN(C(=O)c1cccnc1)CC2` [Compound 259, N-(4-Chloro-2-(4-(3,3,3-trifluoropropyl)piperazin-1-yl)phenyl)-2-nicotinoyl-1,2,3,4-tetrahydroisoquinoline-7-carboxamide] as the compound, how does the IC50 read?
Answer: 108 nM

Question: For `CC(C)(C)CCN1CCc2ccc(C(=O)Nc3ccc(Cl)cc3N3CCN(CCC(F)(F)F)CC3)cc2C1` [Compound 17, N-(4-Chloro-2-(4-(3,3,3-trifluoropropyl)piperazin-1-yl)phenyl)-2-(3,3-dimethylbutyl)-1,2,3,4-tetrahydroisoquinoline-7-carboxamide], which IC50 is on record?
Answer: 386 nM

Question: How did the IC50 turn out when `NC(=O)CCN1CCc2ccc(C(=O)Nc3ccc(Cl)cc3N3CCN(CCC(F)(F)F)CC3)cc2C1` [Compound 20, 2-(3-Amino-3-oxopropyl)-N-(4-chloro-2-(4-(3,3,3-trifluoropropyl)piperazin-1-yl)phenyl)-1,2,3,4-tetrahydroisoquinoline-7-carboxamide] was run?
Answer: 610 nM

Question: For `O=C(Nc1cc(Cl)c(Cl)cc1N1CCN(CCC(F)(F)F)CC1)c1ccc(CN2CCS(=O)(=O)CC2)c(F)c1F` [Compound 186, N-(4,5-Dichloro-2-(4-(3,3,3-trifluoropropyl)piperazin-1-yl)phenyl)-2,3-difluoro-4-((1,1-dioxo-thiomorpholin-4-yl)methyl)benzamide], which IC50 is on record?
Answer: 49.1 nM

Question: How did the IC50 turn out when `O=C(Nc1ccc(Cl)cc1N1CCN(CCC(F)(F)F)CC1)c1ccc2c(c1)CNCC2` [Compound 13, N-(4-Chloro-2-(4-(3,3,3-trifluoropropyl)piperazin-1-yl)phenyl)-1,2,3,4-tetrahydroisoquinoline-7-carboxamide] was run?
Answer: 88.2 nM

Question: `O=C(O)CC1CNCCN1Cc1ccc(C(=O)Nc2ccc(Cl)cc2N2CCN(CCC(F)(F)F)CC2)c(F)c1F` (stereo not shown) [Compound 226, 2-(1-(4-(4-Chloro-2-(4-(3,3,3-trifluoropropyl)piperazin-1-yl)phenylcarbamoyl)-2,3-difluorobenzyl)piperazin-2-yl)acetic acid] was tested. Which IC50 did it give?
Answer: 93.9 nM

Question: How did the IC50 turn out when `O=C(O)CNCc1ccc(C(=O)Nc2ccc(Cl)cc2N2CCN(CCC(F)(F)F)CC2)c(F)c1F` [Compound 202, 2-(4-(4-Chloro-2-(4-(3,3,3-trifluoropropyl)piperazin-1-yl)phenylcarbamoyl)-2,3-difluorobenzylamino)acetic acid] was run?
Answer: 92.1 nM

Question: `O=C(O)CCC(=O)NCc1ccc(C(=O)Nc2ccc(Cl)cc2N2CCN(CCC(F)(F)F)CC2)c(F)c1F` [Compound 293, 4-(4-(4-Chloro-2-(4-(3,3,3-trifluoropropyl)piperazin-1-yl)phenylcarbamoyl)-2,3-difluorobenzylamino)-4-oxobutanoic acid] was tested. Which IC50 did it give?
Answer: 103 nM

Question: How did the IC50 turn out when `NC(=O)[C@@H](COP(=O)(O)O)NCc1ccc(C(=O)Nc2ccc(Cl)cc2N2CCN(CCC(F)(F)F)CC2)c(F)c1F` [Compound 250, (R)-3-Amino-2-(4-(4-chloro-2-(4-(3,3,3-trifluoropropyl)piperazin-1-yl)phenylcarbamoyl)-2,3-difluorobenzylamino)-3-oxopropyl dihydrogenphosphate] was run?
Answer: 5.7 nM

Question: Which IC50 does the source give for `O=C(Nc1ccc(Cl)cc1N1CCN(CCC(F)(F)F)CC1)c1ccc(CNC(=O)[C@H]2CC[C@@H](O)CC2)c(F)c1F` [Compound 330, N-(4-Chloro-2-(4-(3,3,3-trifluoropropyl)piperazin-1-yl)phenyl)-2,3-difluoro-4-(((1s,4s)-4-hydroxycyclohexanecarboxamido)methyl)benzamide] here?
Answer: 11.7 nM

Question: Which IC50 does the source give for `O=C(Nc1ccc(Cl)cc1N1CCN(CCC(F)(F)F)CC1)c1ccc(CN2C(=O)CNC2=O)c(F)c1F` [Compound 428, N-(4-Chloro-2-(4-(3,3,3-trifluoropropyl)piperazin-1-yl)phenyl)-4-((2,5-dioxoimidazolidin-1-yl)methyl)-2,3-difluorobenzamide] here?
Answer: 73.3 nM

Question: For `NCc1ccc(C(=O)Nc2ccc(Cl)cc2N2CCN(CCC(F)(F)F)CC2)c(F)c1` [Compound 26, 4-(Aminomethyl)-N-(4-chloro-2-(4-(3,3,3-trifluoropropyl)piperazin-1-yl)phenyl)-2-fluorobenzamide], which IC50 is on record?
Answer: 87.3 nM

Question: How did the IC50 turn out when `NC(=O)[C@H](CO)NCc1ccc(C(=O)Nc2ccc(Cl)cc2N2CCN(CCC(F)(F)F)CC2)c(F)c1` [Compound 76, (S)-4-((1-Amino-3-hydroxy-1-oxopropan-2-ylamino)methyl)-N-(4-chloro-2-(4-(3,3,3-trifluoropropyl)piperazin-1-yl)phenyl)-2-fluorobenzamide] was run?
Answer: 68.2 nM

Question: `NC1(C(=O)NCc2ccc(C(=O)Nc3ccc(Cl)cc3N3CCN(CCC(F)(F)F)CC3)c(F)c2F)CCSCC1` [Compound 284, 4-Amino-N-(4-(4-chloro-2-(4-(3,3,3-trifluoropropyl)piperazin-1-yl)phenylcarbamoyl)-2,3-difluorobenzyl)tetrahydro-2H-thiopyran-4-carboxamide] was tested. Which IC50 did it give?
Answer: 57.2 nM

Question: For `O=C(Nc1ccc(Cl)cc1N1CCN(CCC(F)(F)F)CC1)c1ccc(CNCc2nn[nH]n2)c(F)c1F` [Compound 200, 4-(((2H-Tetrazol-5-yl)methylamino)methyl)-N-(4-chloro-2-(4-(3,3,3-trifluoropropyl)piperazin-1-yl)phenyl)-2,3-difluorobenzamide], which IC50 is on record?
Answer: 41.7 nM

Question: `NC(=O)[C@@H]1CCCN1Cc1ccc(C(=O)Nc2ccc(Cl)cc2N2CCN(CCC(F)(F)F)CC2)c(F)c1` [Compound 56, (S)-1-(4-(4-Chloro-2-(4-(3,3,3-trifluoropropyl)piperazin-1-yl)phenylcarbamoyl)-3-fluorobenzyl)pyrrolidine-2-carboxamide] was tested. Which IC50 did it give?
Answer: 56.1 nM
